Assay results published in patent publication US11426367B2, “Methods of treating substance abuse” (Perception Neuroscience, Inc., priority 2018, dated 2022).

How the values were obtained:
[1] = system: cerebral metabolic rates of glucose; details: healthy volunteers, Non Patent Literature 13, cited from earlier work; for cerebral metabolic rates of glucose (CMRglu), PET: S(+)-ketamine i.v. 15 mg for 5 min then 0.014 to 0.02 mg/kg/min for 53 min, R(−)-ketamine equimolar doses
Control C57/B6 mice = assay: Conditioned place preference test (dependence test) in control mice; details: control mice, 5, 10 or 20 mg/kg, injected on day 4, 6 and 8, test on day 11
Method: 15-minute habituation was performed for 3 days. Then, 30-minute conditioning was performed on day 4 to day 10, and a behavioral evaluation test was performed on day 11. Saline was injected on day 5, day 7, and day 9. […] In each of the groups, the injection was performed three times, i.e., on day 4, day 6, and day 8. Saline means a group injected with saline.
The administration of an agent was performed by the same methods as the methods described in Example 2.
The place preference test was performed using a conditioned place preference test apparatus (BrainScienceIdea Co., Ltd., Osaka, Japan). The analysis of the results of the place preference test was performed by one-way analysis of variance (one-way ANOVA), followed by a least significant difference test (LSD test). Data are presented as the mean plus minus standard error of the mean (n=9 or 10 mice/group). *p<0.05 and **p<0.01 indicate significant differences as compared to a group injected with saline.

[2] = system: tolerance to effects of ethanol; assay: Tolerance to ethanol, grip strength; details: for tolerance to the effect of ethanol on grip strength/body weight (motor-impairment): rats, 3 mg/kg given with ethanol (2.3 and 1.7) on day 1, tested day 2, 30 min post ethanol, 3 mg/kg
[3] = system: morphine withdrawal signs in rats; assay: Naloxone-precipitated withdrawal from subchronic morphine; format: in vivo; details: 10 and 20 mg/kg i.p. before naloxone 1 mg/kg SC, morphine 10 mg/kg SC b.i.d.
Method: Forty (40) male Wistar rats served as test subjects in this study. Animals were pair housed with unrestricted access to rodent chow and water (SOP ROD.03.01, SOP ROD.04.01, SOP ROD.18). […] All experimental activity occurring during the animals' light cycle. All animal use procedures were performed in accordance with the principles of the Canadian Council on Animal Care (CCAC).
Forty (40) male Wistar rats were assigned to 5 groups of N=8 rats per group. Group A was dosed with saline vehicle (Sal; subcutaneous (SC) route) twice daily (approx. 08:00±1 h and 18:00±1 h) for 12 days. […] This treatment regimen was designed to induce opioid dependence (Erami et al., 2012). […] On days 9 and 12, rats were tested for naloxone precipitated withdrawal. According to a cross-over design (see Table 4: Treatment Groups), all rats in each group received either acute saline, or naloxone hydrochloride (1 mg/kg; dose volume 2 ml/kg) injection by the SC route, 5 minutes prior to behavioral testing. […] Lofexidine doses are based on literature values (e.g. Shearman et al., 1979). Immediately after vehicle or naloxone injection, rats were transferred to activity chambers for 30 minutes where the animals were visually assessed for somatic signs associated with opioid withdrawal (e.g. writhes, chews, ptosis, WDS, shakes, tremor, penile grooming, body weight change; see Higgins and Sellers, 1994). Simultaneously, the activity pattern (distance travelled, rearing) of each rat was automatically recorded.
Locomotor activity. Spontaneous activity in the rats was measured with the automated Med Associates activity test chamber for 30 minutes with 10-minute time bins. The tracking arena was 17″W×17″L×12″H, sensor bars are secured 1″ above the floor to track distance travelled, and a second set of sensor bars are placed ˜5″ above the floor to measure vertical movement and rearing activity. The parameters set on the tracking software were as follows: resolution—50 milliseconds (ms), box size—4 beams, resting delay—500 ms, and ambulatory trigger—2 (SOP ROD.25). […]

DEX-treated mice = assay: Locomotion test (LMT), neonatal dexamethasone exposure model; format: in vivo; details: juvenile DEX-treated mice, 10 mg/kg i.p., day after injection
Method: A new animal model of depression was prepared by exposing mice neonatally to dexamethasone (hereinafter abbreviated as DEX). […] The mouse model was prepared and reported only recently by the inventors of the present application and their collaborators (Non Patent Literature 18). […] Further, alterations were found in levels of amino acids (glutamate, glutamine, glycine, D-serine, and L-serine) in mouse brains after the neonatal DEX exposure (Non Patent Literature 18). Those amino acids are known to be associated with NMDA receptor mediated neurotransmission. Thus, it is conceivable that alterations in glutamatergic transmission via the NMDA receptor after the neonatal DEX exposure may be involved in the depression-like behavior in the juvenile mice and the adult mice (Non Patent Literature 18). […]
The antidepressant effects of the agent were investigated for juvenile mice by behavioral tests such as the TST, the PST, the LMT, and a 1% sucrose preference test (SPT) (FIG. 2A). […] The immobility time of each mouse was recorded for 10 minutes. […] The immobility time was calculated as a value obtained by subtracting active time from total time, using the analysis software of the apparatus. Cumulative immobility time was recorded over 6 minutes during a test period. […] The locomotor activity of the mice was counted with SCANET MV-40, and the cumulative exercise of the mice was recorded for 60 minutes. […]

patients with depression = details: cited from earlier work
Chronic pain patients = details: chronic pain patients after i.v. R,S-ketamine; Persson et al., 1998; cited from earlier work

Row | SMILES | psychotic symptoms ([1]; doses equimolar to psychotomimetic doses of S(+)-ketamine) | cerebral metabolic rates of glucose (CMRglu), PET [1] | CPP score (conditioned place preference test) (Control C57/B6 mice) | Ethanol Tolerance, dose blocking development of tolerance ([2]; grip strength, Present study) | tolerance to the effect of ethanol on grip strength/body weight (motor-impairment) [2] | tolerance to the effect of ethanol on grip strength/body weight (motor-impairment) ([2]; listed as R-ketamine) | overall morphine withdrawal scores (naloxone-precipitated withdrawal signs) [3] | overall morphine withdrawal scores (naloxone-precipitated withdrawal signs) ([3]; listed as R-ketamine) | locomotion in the LMT (DEX-treated mice) | antidepressant effects compared with RS(+/−)-ketamine (0.5 mg/kg, i.v.) (patients with depression; 0.25 mg/kg i.v., treatment-resistant patients with MDD, case report, Non Patent Literature 14) | effective oral doses in patients with depression (patients with depression; oral, Non Patent Literatures 15 and 16) [mg/kg] | Plasma levels of S analyzed (Chronic pain patients)
1 | CN[C@@]1(c2ccccc2Cl)CCCCC1=O.Cl [R(−)-ketamine] | did not produce psychotic symptoms | tended to decrease CMRglu | did not increase the CPP score | 3 - grip strength mg/kg | tolerance was significantly diminished | blocked | dose-dependently attenuated overall morphine withdrawal scores | significantly attenuated the naloxone-induced withdrawal signs | no difference in locomotion |  |  | 
2 | CN[C@]1(c2ccccc2Cl)CCCCC1=O [S(+)-ketamine] |  | increased cerebral metabolic rates of glucose | increased the CPP score in a dose-dependent manner |  |  |  |  |  | no difference in locomotion | weaker | 1.25 | Plasma levels of S analyzed (50-400 ng/ml)
